Measured values: PubChem BioAssay (NCI)
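Five concentrations, 48 hours, 96-well plates. TGI denotes the concentration required for complete inhibition of growth.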

Key:
Test in all cases: NCI-60 cell line screen, 48 h
[1] = tested on: 786-0 renal
[2] = tested on: SK-MEL-5 melanoma
[3] = tested on: NCI-H460 lung
[4] = tested on: HCT-15 colon
[5] = tested on: HT29 colon
[6] = tested on: OVCAR-4 ovarian
[7] = tested on: SN12C renal
[8] = tested on: PC-3 prostate
[9] = tested on: NCI/ADR-RES ovarian
[10] = tested on: SF-539 CNS
[11] = tested on: KM12 colon
[12] = tested on: M14 melanoma
[13] = tested on: HCT-116 colon
[14] = tested on: CAKI-1 renal
[15] = tested on: SK-MEL-28 melanoma
[16] = tested on: SF-268 CNS
[17] = tested on: SNB-19 CNS
[18] = tested on: OVCAR-5 ovarian
[19] = tested on: A549 NSCLC
[20] = tested on: OVCAR-3 ovarian
[21] = tested on: DU-145 prostate
[22] = tested on: MDA-N
[23] = tested on: T-47D breast
[24] = tested on: MOLT-4 leukemia
[25] = tested on: UO-31 renal
[26] = tested on: COLO 205 colon
[27] = tested on: LOX IMVI melanoma
[28] = tested on: RPMI-8226 leukemia
[29] = tested on: MCF7 breast
[30] = tested on: A498 renal
[31] = tested on: TK-10 renal
[32] = tested on: MDA-MB-435
[33] = tested on: MALME-3M melanoma
[34] = tested on: ACHN renal
[35] = tested on: CCRF-CEM leukemia
[36] = tested on: HCC-2998 colon
[37] = tested on: OVCAR-8 ovarian
[38] = tested on: K-562 leukemia
[39] = tested on: SF-295 CNS
[40] = tested on: RXF 393 renal
[41] = tested on: U251 CNS
[42] = tested on: HL-60(TB) leukemia
[43] = tested on: NCI-H23 lung
[44] = tested on: SR leukemia
[45] = tested on: SW-620 colon
[46] = tested on: MDA-MB-231 breast
[47] = tested on: UACC-257 melanoma
[48] = tested on: SK-OV-3 ovarian
[49] = tested on: SK-MEL-2 melanoma
[50] = tested on: NCI-H226 lung
[51] = tested on: HOP-62 NSCLC
[52] = tested on: HOP-92 NSCLC
[53] = tested on: IGROV1 ovarian
[54] = tested on: BT-549 breast

## CC(=O)O[C@H]1CCC2[C@@H]3CCC4Nc5oncc5C[C@]4(C)C3CC[C@@]21C (some centres undefined)
[1]
  TGI: > 10 µM
[2]
  TGI: > 10 µM
[3]
  TGI: > 10 µM
[4]
  TGI: > 10 µM
[5]
  TGI: > 10 µM
[6]
  TGI: > 10 µM
[7]
  TGI: > 10 µM
[8]
  TGI: > 10 µM
[9]
  TGI: > 10 µM
[10]
  TGI: 9.84 µM
[11]
  TGI: > 10 µM
[12]
  TGI: > 10 µM
[13]
  TGI: > 10 µM
[14]
  TGI: > 10 µM
[15]
  TGI: > 10 µM
[16]
  TGI: > 10 µM
[17]
  TGI: > 10 µM
[18]
  TGI: > 10 µM
[19]
  TGI: > 10 µM
[20]
  TGI: > 10 µM
[21]
  TGI: > 10 µM
[22]
  TGI: > 10 µM
[23]
  TGI: > 10 µM
[24]
  TGI: > 10 µM
[25]
  TGI: > 10 µM
[26]
  TGI: > 10 µM
[27]
  TGI: > 10 µM
[28]
  TGI: > 10 µM
[29]
  TGI: > 10 µM
[30]
  TGI: > 10 µM
[31]
  TGI: > 10 µM
[32]
  TGI: > 10 µM
[33]
  TGI: > 10 µM
[34]
  TGI: > 10 µM
[35]
  TGI: > 10 µM
[36]
  TGI: > 10 µM
[37]
  TGI: > 10 µM
[38]
  TGI: > 10 µM
[39]
  TGI: > 10 µM
[40]
  TGI: > 10 µM
[41]
  TGI: > 10 µM
[42]
  TGI: 4.58 µM
[43]
  TGI: > 10 µM
[44]
  TGI: > 10 µM
[45]
  TGI: > 10 µM
[46]
  TGI: > 10 µM
[47]
  TGI: > 10 µM
[48]
  TGI: > 10 µM
[49]
  TGI: > 10 µM
[50]
  TGI: > 10 µM
[51]
  TGI: > 10 µM
[52]
  TGI: > 10 µM
[53]
  TGI: > 10 µM
[54]
  TGI: > 10 µM
